# Measurements: paper PMC5808105, “Sublingual Administration of Sildenafil Oro-dispersible Film: New Profiles of Drug Tolerability and Pharmacokinetics for PDE5 Inhibitors” (Frontiers in Pharmacology, 2018)
# Experiments:
# [1] = Trans-mucosal permeation test (vertical diffusion system); format: in vitro ADME; details: HBSS, donor-receiver chambers, 0-40 min; equivalent to 50 mg Sild; result in words
# Method: Trans-mucosal permeation profile of Sild was evaluated in vitro by using a specific device according to [Delvadia et al. (2012)] appropriately modified. Briefly, the device consisted in a vertical diffusion system featured by donor–receiver chambers separated by a disposable cellulose–acetate membrane (pore 0.45 μm). The donor cell contained 1.5 ml of HBSS, whereas the receiver chamber was part of a closed recirculation circuit of 30 ml including the volumes of tubing and reservoir. Sampling was performed from receiver chamber reservoir at the time intervals of 0, 5, 10, 20, 30, and 40 min and replaced by an equivalent volume of fresh HBSS. The samples were analyzed by HPLC-UV for drug content ([Fejős et al., 2014]). Data were normalized on the highest permeated Sild concentration observed for pure Sild citrate. Tests were performed in triplicate and results were reported as mean value ± standard deviation.
# [2] = cited from earlier work
# [3] = design: method as in Zayed et al., 2012; Sun et al., 2014; details: result in words; ref Zayed et al., 2012; Sun et al., 2014; cited from earlier work
smiles,measurement,setting,value
CCCc1nn(C)c2c(=O)[nH]c(-c3cc(S(=O)(=O)N4CCN(C)CC4)ccc3OCC)nc12.O=C(O)CC(O)(CC(=O)O)C(=O)O [Sild citrate],permeation of Sild through cellulose acetate membrane,[1],free and fast diffusion between the two chambers
"CCCc1nn(C)c2c(=O)[nH]c(-c3cc(S(=O)(=O)N4CCN(C)CC4)ccc3OCC)nc12 [Sild, Sildenafil]",time to peak plasma concentration,"[2]; after oral administration, ref Gupta et al., 2005",0.5 to 2 h
same,oral bioavailability,"[2]; ref Gupta et al., 2005",38–41%
same,water solubility,[3],low water solubility
CCCc1nc(C)c2c(=O)[nH]c(-c3cc(S(=O)(=O)N4CCN(CC)CC4)ccc3OCC)nn12 [Vardenafil],bioavailability,"[2]; ref Center for Drug Evaluation and Research, 2003",~15%
